From US11753408B2, “Compounds and method for blocking transmission of malarial parasite” (The United States of America, as represented by the …, priority 2016, dated 2023)
pEC50: −log10 of the molar value. Read-outs that look alike come from different tables or passages of the source.

What was measured:
[1] = system: Asexual parasites of P. falciparum strain 3D7; experiment: In vitro drug activity on asexual parasites (SYBR Green assay); type: cell-based, Plasmodium falciparum
Protocol: Cell culture. Asexual parasites of P. falciparum strain 3D7 were cultured as described previously [Trager W, et al., Journal of Parasitology 2005, 91: 484-486], Stage III-V gametocytes were selected and enriched with 3-day treatment with 50 mM N-acetylglucosamine (NAG) and the following Percoll density gradient centrifugation after gametocyte production [Tanaka T Q, et al., Molecular and Biochemical Parasitology, 2011, 111: 160-163], Gametocytes of HB3 and Dd2 strains were produced and then set up for assay in a similar process. HepG2 cells (ATCC, cat. no. 77400) were cultured in 175-cm^2 tissue culture flasks with 30 ml growth medium at 37° C. in a 5% CO2 humidified atmosphere. Growth medium was made with Dulbecco's Modified Eagle Medium with 10% fetal bovine serum (FBS). Growth medium was replaced every other day and cells were passed at 75% confluence.
Asexual parasites of P. falciparum strain 3D7 were cultured as described previously (Trager, W. et al., J. Parasitol. 2005, 91(3): 484-486). Drug activity on asexual stage parasites was tested using a SYBR Green assay as described previously (Eastman, R. T. et al., Antimicrob. Agents Chemother. 2013, 57(1): 425-435; Smilkstein, M. et al., Antimicrob. Agents Chemother. 2004, 48(5): 1803-1806). Briefly, parasites were diluted to 0.5% parasitemia in complete culture medium with 2% hematocrit and drugs diluted in DMSO (≤0.5%) and were loaded into a 96-well plate (200 μl/well). No drug and RBC alone wells were included as positive and background controls, respectively, and each testing condition was examined in duplicated. After 72 h incubation under the standard culture condition and a freeze-thaw lysis step at −80° C. and room temperature, 100 μl/well of lysis buffer containing SYBR Green I was added to the parasite culture and incubated for 30 min at room temperature. The fluorescence of each well was measured at 520 nm following excitation at 490 nm using a FLUOstar Optima™ microplate reader (BMG Labtech).

[2] = Microsomal stability (rat); type: in vitro ADME; details: rat microsomes
Solubility at pH 7.4 = type: physicochemical
PAMPA permeability = type: in vitro ADME
mTOR = mTOR (Homo sapiens, UniProt P42345); experiment: mTOR activity (no method described); type: biochemical
[3] = P. falciparum 3D7 asexual parasites, 72 h, SYBR Green

SMILES | pEC50 [1, 3] | Microsomal Stability (rat) T1/2 [2] [min] | Sol @ pH 7.4 (ug/mL) (Solubility at pH 7.4) | PAMPA Permeability (×10^6 cm/s) (PAMPA permeability) | pEC50 [1] | mTOR (mTOR) [µM] | Sol @ pH 7.4 (Solubility at pH 7.4) [ug/mL] | PAMPA Permeability (PAMPA permeability) [×10⁻⁶ cm/s]
Cc1cc(S(C)(=O)=O)ccc1-n1c(=O)ccc2cnc3ccc(-c4ccc(N)nc4)cc3c21 [Compound 70] | 7.70 | 31.3 | 1.2 | 148.4 ×10^6 cm/s | – | – | – | –
CC(C)(C)OC(=O)CN1Cc2cc(-n3c(=O)ccc4cnc5ccc(-c6ccc(Cl)cc6)cc5c43)ccc2C1=O [Compound 364] | 5.34 | >30 | 2.7 | 75.9 ×10^6 cm/s | – | – | – | –
Cc1cc(N2CCNCC2)c(C#N)cc1-n1c(=O)ccc2cnc3ccc(-c4ccc(Cl)cc4)cc3c21 [Compound 11] | – | 9.6 | <1 | 21 ×10^6 cm/s | – | – | – | –
CNCc1cc(-n2c(=O)ccc3cnc4ccc(-c5ccc(Cl)cc5)cc4c32)ccc1C(=O)N1CCOCC1 [Compound 200] | – | – | – | – | 7.22 | 15.37 | 7.2 | 1070
CN(C)CCc1ccc(-c2ccc3ncc4ccc(=O)n(-c5ccc(S(C)(=O)=O)cc5)c4c3c2)cc1 [Compound 68] | 6.88 | >30 | 15.7 | 148.7 ×10^6 cm/s | – | – | – | –
COc1cc(C(=O)NC2CC2)ccc1-n1c(=O)ccc2cnc3ccc(-c4ccc(Cl)c(O)c4)cc3c21 [Compound 273] | – | >30 | – | – | 7.72 | 4.164 | <1 | –
CS(=O)(=O)c1ccc(-n2c(=O)ccc3cnc4ccc(-c5ccc(Cl)cc5)cc4c32)cc1CN1CCNCC1 [Compound 35] | 7.12 | >30 | 4.3 | 35 ×10^6 cm/s | – | – | – | –
CN(C)CCOc1ccc(-c2ccc3ncc4ccc(=O)n(-c5ccc(S(C)(=O)=O)cc5)c4c3c2)cc1 [Compound 71] | 7.25 | >30 | 2 | 133.5 ×10^6 cm/s | – | – | – | –
CS(=O)(=O)c1ccc(-n2c(=O)ccc3cnc4ccc(-c5ccc(N)nc5)cc4c32)cc1Cl [Compound 61] | 8.07 | >30 | 2.3 | <1 ×10^6 cm/s | – | – | – | –
O=C(c1ccc(-n2c(=O)ccc3c(Cl)nc4ccc(-c5ccc(Cl)cc5)cc4c32)cc1)N1CCOCC1 [Compound 210] | – | 2.7 | – | – | 4.84 | 100 | <1 | –
CC(N)c1ccc(-c2ccc3ncc4ccc(=O)n(-c5ccc6c(c5)CNC6=O)c4c3c2)cc1 (stereo not drawn) [Compound 381] | – | >30 | 44.9 | 4 ×10^6 cm/s | – | – | – | –
NCCCN1Cc2cc(-n3c(=O)ccc4cnc5ccc(-c6ccc(Cl)cc6)cc5c43)ccc2C1=O [Compound 343] | 7.68 | >30 | 13.4 | <2.5 ×10^6 cm/s | – | – | – | –
O=C1NC(=O)c2cc(-n3c(=O)ccc4cnc5ccc(-c6ccc(Cl)cc6)cc5c43)ccc21 [Compound 379] | 5.53 | 23 | <1 | 31 ×10^6 cm/s | – | – | – | –
Cc1cc(S(C)(=O)=O)ccc1-n1c(=O)ccc2cnc3ccc(-c4ccc(CN(C)C)cc4)cc3c21 [Compound 69] | 5.71 | >30 | >73 | 828.3 ×10^6 cm/s | – | – | – | –
O=C1NCc2cc(-n3c(=O)ccc4cnc5ccc(-c6ccc(OC7CCNCC7)cc6)cc5c43)ccc21 [Compound 380] | 6.51 | >30 | 2.6 | <10.7 ×10^6 cm/s | – | – | – | –
Cc1cc(S(C)(=O)=O)ccc1-n1c(=O)ccc2cnc3ccc(-c4ccc(Cl)cc4)cc3c21 [Compound 34] | 7.23 | 17.1 | <1 | <1 ×10^6 cm/s | – | – | – | –
CN(C)Cc1ccc(-c2ccc3ncc4ccc(=O)n(-c5ccc6c(c5)C(=O)N(C)C6=O)c4c3c2)cc1 [Compound 352] | 4.73 | – | >72.0 | 343.6 ×10^6 cm/s | – | – | – | –

Second part, the compound after the results:

pEC50 [1, 3] | Microsomal Stability (rat) T1/2 [2] [min] | Sol @ pH 7.4 (ug/mL) (Solubility at pH 7.4) | PAMPA Permeability (×10^6 cm/s) (PAMPA permeability) | pEC50 [1] | mTOR (mTOR) [µM] | Sol @ pH 7.4 (Solubility at pH 7.4) [ug/mL] | PAMPA Permeability (PAMPA permeability) [×10⁻⁶ cm/s] | SMILES
– | >30 | – | – | 6.46 | 3.254 | 0 | – | CN(C)CCN1CCN(C(=O)c2ccc(-n3c(=O)ccc4cnc5ccc(-c6ccc(C7(N)CC7)cc6)cc5c43)cc2)CC1 [Compound 270]
– | 8 | – | – | 7.24 | 3.878 | 0 | – | O=C(NCCCN1CCCC1)c1ccc(-n2c(=O)ccc3cnc4ccc(-c5ccc(F)cc5)cc4c32)cc1 [Compound 267]
– | – | – | – | 7.24 | 7.119 | 3.4 | 1180 | Cc1cc(C(=O)NC2CC2)ccc1-n1c(=O)ccc2cnc3ccc(-c4ccc(F)cc4)cc3c21 [Compound 223]
– | 2.6 | – | – | 7.62 | 0.6559 | 0 | – | O=C(NCCCN(CCO)CCO)c1ccc(-n2c(=O)ccc3cnc4ccc(-c5ccc(Cl)cc5)cc4c32)cc1 [Compound 259]
6.73 | >30 | 5.9 | 6.5 ×10^6 cm/s | – | – | – | – | CS(=O)(=O)c1ccc(-n2c(=O)ccc3cnc4ccc(-c5ccc(C6(N)CC6)cc5)cc4c32)cc1 [Compound 36]
– | >30 | – | – | 6.41 | 3.874 | 0 | – | NC1(c2ccc(-c3ccc4ncc5ccc(=O)n(-c6ccc(C(=O)N7CCN(CCO)CC7)cc6)c5c4c3)cc2)CC1 [Compound 269]
– | >30 | – | – | 8.19 | 0.2376 | 0.7 | – | O=C(NO)c1ccc(-n2c(=O)ccc3cnc4ccc(-c5ccc(Cl)cc5)cc4c32)cc1 [Compound 303]
– | 10.6 | – | – | 6.48 | 23.38 | 51.2 | – | COc1cc(C(=O)NCCN2CCCC2)ccc1-n1c(=O)ccc2cnc3ccc(-c4ccc(Cl)cc4)cc3c21 [Compound 248]
– | 1.9 | – | – | 6.88 | 2.064 | 0 | – | O=C(NCCN1CCCCC1)c1ccc(-n2c(=O)ccc3cnc4ccc(-c5ccc(Cl)cc5)cc4c32)cc1 [Compound 265]
– | 2.1 | – | – | 7.20 | 5.024 | 0 | – | O=C(NCCCN1CCCCC1)c1ccc(-n2c(=O)ccc3cnc4ccc(-c5ccc(Cl)cc5)cc4c32)cc1 [Compound 260]
– | 2 | – | – | 6.68 | 4.985 | 0 | – | O=C(NCCN1CCOCC1)c1ccc(-n2c(=O)ccc3cnc4ccc(-c5ccc(F)cc5)cc4c32)cc1 [Compound 268]
– | 1.7 | – | – | 7.22 | 1.871 | 0 | – | O=C(NCCCN1CCS(=O)(=O)CC1)c1ccc(-n2c(=O)ccc3cnc4ccc(-c5ccc(Cl)cc5)cc4c32)cc1 [Compound 261]
– | 24.4 | – | – | 7.46 | 2.541 | 0 | – | CN(C)CCCNC(=O)c1ccc(-n2c(=O)ccc3cnc4ccc(-c5ccc(Cl)cc5)cc4c32)cc1 [Compound 258]
– | >30 | – | – | 7.23 | 1.512 | 0 | – | O=C(NC1CCN(CCO)CC1)c1ccc(-n2c(=O)ccc3cnc4ccc(-c5ccc(Cl)cc5)cc4c32)cc1 [Compound 263]
– | >30 | – | – | 6.69 | 50 | <1 | – | O=C(NC1CC1)c1ccc(-n2c(=O)ccc3cnc4ccc(-c5ccc(F)cc5)cc4c32)cn1 [Compound 301]
6.54 | >30 | 61 | 439.2 ×10^6 cm/s | – | – | – | – | CS(=O)(=O)c1ccc(-n2c(=O)ccc3cnc4ccc(-c5ccc(CN6CCCC6)cc5)cc4c32)cc1 [Compound 33]
